One block for each compound: values may come before it.
Test: solvent given as SMILES

Compound: Cc1ccc(C2=[N+]3C(=Cc4c(C)cc(C)n4[B-]3(F)F)c3ccccc32)[nH]1
- fluorescence lifetime (in C1CCOC1): 6.54 ns
- fluorescence lifetime (in CC#N): 6.32 ns
- fluorescence lifetime (in CCCCCC): 7.31 ns
- fluorescence lifetime (in CO): 6.5 ns
- fluorescence lifetime (in Cc1ccccc1): 6.17 ns
- fluorescence lifetime (in ClCCl): 6.65 ns

Compound: CCN(CC)c1ccc2cc3c([o+]c2c1)/C(=C/Nc1ccccc1)CCC3
- fluorescence lifetime (in CCO): 4.05 ns
- fluorescence lifetime (in ClC(Cl)Cl): 2.65 ns
- fluorescence lifetime (in ClCCl): 4.97 ns

Compound: COc1cc(/C=C2/SC(=O)NC2=O)ccc1O
- fluorescence lifetime (in C1CCCCC1): 0.61 ns
- fluorescence lifetime (in C1COCCO1): 1.3 ns
- fluorescence lifetime (in CC#N): 0.291 ns
- fluorescence lifetime (in CN(C)C=O): 4.11 ns
- fluorescence lifetime (in CO): 0.25 ns
- fluorescence lifetime (in O): 0.281 ns
- fluorescence lifetime (in OCC(O)CO): 5.79 ns
- fluorescence lifetime (in OCCO): 2.52 ns

Compound: CN(C)c1ccc(-c2nc(C#N)c(C#N)n2C)cc1
- fluorescence lifetime (in C1CCCCC1): 1.3 ns
- fluorescence lifetime (in ClC(Cl)Cl): 3.5 ns

Compound: COc1ccc2c3c(cccc13)C(=O)c1ccccc1-2
- fluorescence lifetime (in CC#N): 13.2 ns
- fluorescence lifetime (in CC(C)=O): 10.5 ns
- fluorescence lifetime (in CC(C)O): 12.7 ns
- fluorescence lifetime (in CCCCOCCCC): 0.6 ns
- fluorescence lifetime (in CCOC(C)=O): 4.1 ns
- fluorescence lifetime (in CCOCC): 0.9 ns
- fluorescence lifetime (in CO): 12.6 ns
- fluorescence lifetime (in Cc1ccccc1): 1.4 ns
- fluorescence lifetime (in Clc1ccccc1): 6 ns
- fluorescence lifetime (in N#Cc1ccccc1): 14.1 ns
- fluorescence lifetime (in O=C1CCCCC1): 7.8 ns

Compound: CCCCc1cc(-c2cccc(COC)c2)oc1-c1cccc(-c2cc(CCCC)c(-c3cccc(-c4cc(CCCC)c(-c5cccc(-c6oc(-c7cccc(-c8oc(-c9cccc(-c%10oc(-c%11cccc(COC)c%11)cc%10CCCC)c9)cc8CCCC)c7)cc6CCCC)c5)o4)c3)o2)c1
- fluorescence lifetime (in ClC(Cl)Cl): 1.35 ns

Compound: CC(C)[Si](C#Cc1cc2c(C#C[Si](C(C)C)(C(C)C)C(C)C)c(C#C[Si](C(C)C)(C(C)C)C(C)C)c3cc(C#C[Si](C(C)C)(C(C)C)C(C)C)cc4c(C#C[Si](C(C)C)(C(C)C)C(C)C)c(C#C[Si](C(C)C)(C(C)C)C(C)C)c(c1)c2c34)(C(C)C)C(C)C
- fluorescence lifetime (in ClCCl): 14.1 ns

Compound: CC1=CC(C)=[N+]2C1=C(c1ccc(-c3ccc(O)cc3)s1)c1c(C)cc(C)n1[B-]2(F)F
- fluorescence lifetime (in Cc1ccccc1): 3.5 ns

Compound: N#Cc1c2ccccc2cc2ccccc12
- fluorescence lifetime (in C1CCCCC1): 12.7 ns
- fluorescence lifetime (in CO): 16 ns

Compound: COc1ccc([Si](C)(C)C)c2ccccc12
- fluorescence lifetime (in C1CCCCC1): 10 ns

Compound: CCOc1ccc2c(-c3nc(-c4ccccc4F)no3)cc(=O)oc2c1
- fluorescence lifetime (in CCO): 6.6 ns
- fluorescence lifetime (in ClC(Cl)Cl): 5.1 ns

Compound: CN(C)c1ccc(C2=Nc3sc4c(F)c(F)c(F)c(F)c4[n+]3[B-](F)(F)O2)cc1
- fluorescence lifetime (in Cc1ccccc1): 2 ns

Compound: O=C1c2ccccc2-c2ccc(Nc3nc(Cl)nc(Cl)n3)c3cccc1c23
- fluorescence lifetime (in CC#N): 6.6 ns
- fluorescence lifetime (in CC(C)=O): 4.5 ns
- fluorescence lifetime (in CC(C)O): 7.7 ns
- fluorescence lifetime (in CCCCOCCCC): 0.5 ns
- fluorescence lifetime (in CCOC(C)=O): 1.6 ns
- fluorescence lifetime (in CCOCC): 0.7 ns
- fluorescence lifetime (in CO): 7.6 ns
- fluorescence lifetime (in Cc1ccccc1): 0.9 ns
- fluorescence lifetime (in Clc1ccccc1): 2 ns
- fluorescence lifetime (in N#Cc1ccccc1): 6 ns
- fluorescence lifetime (in O=C1CCCCC1): 3.4 ns

Compound: CCN(CC)c1ccc(/N=N/c2nc3ccc([N+](=O)[O-])cc3s2)cc1
- fluorescence lifetime (in CC#N): 6.03 ns
- fluorescence lifetime (in ClCCl): 8.14 ns

Compound: O=C(O)CCCc1cc2ccc3cccc4ccc(c1)c2c34
- fluorescence lifetime (in CO): 622 ns

Compound: c1ccc(-c2nc(-c3ccccc3)nc(-c3ccc(-n4c5ccccc5c5cc6c(cc54)c4ccccc4n6-c4ccccc4)cc3)n2)cc1
- fluorescence lifetime (in O=P(c1ccccc1)(c1ccccc1)c1ccc2oc3ccc(P(=O)(c4ccccc4)c4ccccc4)cc3c2c1): 13.4 ns

Results, then the compound that gave them:

- fluorescence lifetime (in C1CCOC1): 0.5 ns
- fluorescence lifetime (in ClCCl): 0.7 ns
Compound: CCC(CC)COC1=CC2=C3c4cc(OCC(CC)CC)c(-c5cccs5)n4[B-](F)(F)[n+]4c3n(c3cc(C(C)(C)C)ccc34)[B-](F)(F)[N+]2=C1c1cccs1

- fluorescence lifetime (in CCCO): 9 ns
Compound: Cn1c2ccccc2c2c1c1ccccc1n2C

- fluorescence lifetime (in ClCCl): 4.89 ns
Compound: F[B-]1(F)n2c(cc3c4ccccc4c4ccccc4c32)-c2ccc3ccccc3[n+]21

- fluorescence lifetime (in ClCCl): 2.97 ns
Compound: c1ccc(-c2cc3c(-c4ccccc4)c4cccc5c(-c6ccccc6)cc6c(-c7ccccc7)c7cccc2c7c3c6c54)cc1

- fluorescence lifetime (in ClCCl): 8.11 ns
Compound: Cc1ccc(C2=[N+]3C(=Cc4ccc(C)n4[B-]3(F)F)c3ccccc32)[nH]1

- fluorescence lifetime (in ClCCl): 13.4 ns
Compound: Cc1cc(-c2cccc3ccccc23)cc(C)[o+]1

- fluorescence lifetime (in ClC(Cl)Cl): 3.62 ns
Compound: CCc1ccc(-n2c3ccccc3c3cc4c(cc32)c2ccccc2n4-c2ccc(CC)cc2)cc1

- fluorescence lifetime (in ClCCl): 1.31 ns
Compound: COc1ccc(/C=C/C2=[O+][B-](F)(F)OC(/C=C/c3ccc(OC)cc3)=C2c2ccc(OC)cc2)cc1

- fluorescence lifetime (in C1CCOC1): 1.62 ns
Compound: CC(C)(C)c1ccc(C2=C(c3ccc(C(C)(C)C)cc3)[Si](c3ccccc3)(c3ccccc3)c3ccccc32)cc1

- fluorescence lifetime (in C1CCOC1): 1.1 ns
Compound: CC(C)(C)c1ccc(C2=C(c3ccc(-n4c5ccc(C(C)(C)C)cc5c5cc(C(C)(C)C)ccc54)cc3)S(=O)(=O)c3c2sc(-c2ccc(-n4c5ccc(C(C)(C)C)cc5c5cc(C(C)(C)C)ccc54)cc2)c3-c2ccc(C(C)(C)C)cc2)cc1

- fluorescence lifetime (in ClCCl): 0.9 ns
Compound: O=S1(=O)c2ccccc2C2(c3cc(-c4ccc(-n5c6ccccc6c6ccccc65)cc4)ccc3-c3ccc(-c4ccc(-n5c6ccccc6c6ccccc65)cc4)cc32)c2ccccc21

- fluorescence lifetime (in ClC(Cl)Cl): 3.4 ns
Compound: CCCCCCCCN1C(=O)c2ccc3c4c(-c5ccc(-n6c7ccccc7c7ccccc76)cc5)cc5c6c(ccc(c7c(-c8ccc(-n9c%10ccccc%10c%10ccccc%109)cc8)cc(c2c37)C1=O)c64)C(=O)N(CCCCCCCC)C5=O

Reference: the Deep4Chem optical property database
